# Values quoted from earlier work as cited in PMC13061384, “Rapid behavioral screening in the planarian Dugesia japonica is a biologically relevant system to study neurotoxicity of organophosphorus pesticides mixtures” (Frontiers in Toxicology, 2026).
# Conditions: ref PubChem
smiles,measurement,value
"CCOP(=S)(OCC)Oc1ccc([N+](=O)[O-])cc1 [PT, Parathion]",logP,3.8
